# Data taken from patent publication US10159672B2 (PARION SCIENCES, INC., priority 2011, dated 2018).
# Assays:
# Rat Hepatocyte = test: Rat hepatocyte metabolism; format: in vitro ADME; conditions: 24-hour incubation
# ENaC = target: T1, ENaC (Canis lupus familiaris, UniProt A0A8I3MKE6+A0A8I3Q679+Q95165); test: In vitro sodium channel blocking activity and reversibility (short circuit current, Ussing chambers); format: cell-based, canine
# T1 construct: using primary cultures of canine bronchial epithelial cells; endogenous in cells; host or cells: primary canine bronchial epithelial cells cultured at air-liquid interface
# T1 sequence (A0A8I3Q679 1-649): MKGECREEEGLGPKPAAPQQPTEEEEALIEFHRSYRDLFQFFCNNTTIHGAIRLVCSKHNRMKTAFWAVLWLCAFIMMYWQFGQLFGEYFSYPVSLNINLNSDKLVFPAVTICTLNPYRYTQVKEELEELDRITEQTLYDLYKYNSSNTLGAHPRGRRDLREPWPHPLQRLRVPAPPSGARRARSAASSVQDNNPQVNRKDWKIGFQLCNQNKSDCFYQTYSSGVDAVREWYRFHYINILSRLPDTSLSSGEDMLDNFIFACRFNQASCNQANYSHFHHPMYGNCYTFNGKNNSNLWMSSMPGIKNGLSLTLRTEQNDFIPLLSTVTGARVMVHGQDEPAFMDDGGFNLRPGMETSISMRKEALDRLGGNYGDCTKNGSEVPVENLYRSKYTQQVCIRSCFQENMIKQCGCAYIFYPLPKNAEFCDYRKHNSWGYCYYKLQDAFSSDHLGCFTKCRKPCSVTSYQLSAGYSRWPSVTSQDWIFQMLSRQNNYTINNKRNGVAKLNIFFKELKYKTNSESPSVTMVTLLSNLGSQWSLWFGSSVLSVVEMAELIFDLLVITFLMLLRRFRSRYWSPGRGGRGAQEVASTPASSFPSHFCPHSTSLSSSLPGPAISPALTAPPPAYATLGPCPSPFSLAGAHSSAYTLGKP
# T1 sequence (Q95165 1-641): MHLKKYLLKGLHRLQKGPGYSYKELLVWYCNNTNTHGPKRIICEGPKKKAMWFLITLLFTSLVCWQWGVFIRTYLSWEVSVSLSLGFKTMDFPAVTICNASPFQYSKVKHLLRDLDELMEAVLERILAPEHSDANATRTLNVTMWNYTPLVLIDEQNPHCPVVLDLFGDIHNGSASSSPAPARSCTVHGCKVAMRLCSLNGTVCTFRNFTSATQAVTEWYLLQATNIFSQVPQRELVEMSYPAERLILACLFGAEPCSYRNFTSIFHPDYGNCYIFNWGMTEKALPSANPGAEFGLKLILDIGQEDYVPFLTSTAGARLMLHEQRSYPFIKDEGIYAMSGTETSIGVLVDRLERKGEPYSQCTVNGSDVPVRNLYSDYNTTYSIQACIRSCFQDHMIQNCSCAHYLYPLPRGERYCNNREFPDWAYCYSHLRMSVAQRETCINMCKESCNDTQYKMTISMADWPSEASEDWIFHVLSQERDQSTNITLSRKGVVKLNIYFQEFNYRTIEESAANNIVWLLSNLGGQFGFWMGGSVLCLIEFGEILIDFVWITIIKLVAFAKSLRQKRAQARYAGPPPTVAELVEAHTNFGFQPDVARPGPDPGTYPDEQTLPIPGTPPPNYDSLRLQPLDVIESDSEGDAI
# T1 sequence (A0A8I3MKE6 1-646): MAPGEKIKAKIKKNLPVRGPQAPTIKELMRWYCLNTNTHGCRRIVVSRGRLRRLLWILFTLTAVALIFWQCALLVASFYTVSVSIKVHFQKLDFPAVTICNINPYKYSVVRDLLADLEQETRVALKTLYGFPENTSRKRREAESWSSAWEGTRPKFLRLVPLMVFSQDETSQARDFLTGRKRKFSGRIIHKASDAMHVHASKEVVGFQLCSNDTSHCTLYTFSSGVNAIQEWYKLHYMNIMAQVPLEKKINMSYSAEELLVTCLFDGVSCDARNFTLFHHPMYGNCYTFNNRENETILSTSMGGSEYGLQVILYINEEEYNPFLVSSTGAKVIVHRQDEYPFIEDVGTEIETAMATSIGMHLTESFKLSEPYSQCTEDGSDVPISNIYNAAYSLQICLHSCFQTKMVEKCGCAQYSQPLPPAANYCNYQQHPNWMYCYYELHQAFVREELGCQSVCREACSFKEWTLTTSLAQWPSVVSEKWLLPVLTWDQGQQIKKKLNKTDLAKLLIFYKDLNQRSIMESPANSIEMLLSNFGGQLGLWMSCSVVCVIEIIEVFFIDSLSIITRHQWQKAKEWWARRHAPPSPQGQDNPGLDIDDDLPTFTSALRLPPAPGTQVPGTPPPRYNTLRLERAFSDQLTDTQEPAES
# Method: One assay used to assess mechanism of action and/or potency of the compounds of the present invention involves the determination of lumenal drug inhibition of airway epithelial sodium currents measured under short circuit current (ISC) using airway epithelial monolayers mounted in Ussing chambers. Cells obtained from freshly excised human, dog, sheep or rodent airways are seeded onto porous 0.4 micron Snapwell™ Inserts (CoStar), cultured at air-liquid interface (ALI) conditions in hormonally defined media, and assayed for sodium transport activity (ISC) while bathed in Krebs Bicarbonate Ringer (KBR) in Using chambers. All test drug additions are to the lumenal bath with half-log dose addition protocols (from 1×10^−11 M to 3×10^−5 M), and the cumulative change in ISC (inhibition) recorded. All drugs are prepared in dimethyl sulfoxide as stock solutions at a concentration of 1×10^−2 M and stored at −20° C. […] After the maximal concentration ([…]) is administered, the lumenal bath is exchanged three times with fresh drug-free KBR solution, and the resultant ISC measured after each wash for approximately 5 minutes in duration. Reversibility is defined as the percent return to the baseline value for sodium current after the third wash. All data from the voltage clamps are collected via a computer interface and analyzed off-line.
# Dose-effect relationships for all compounds are considered and analyzed by the Prism 3.0 program. […] The potency of the sodium channel blocking activity of representative compounds in freshly excised cell from canine airways is shown in Table 2.
smiles,measurement,setting,value
"CN(C)C(=O)[C@H](CCCCNC(=N)N)NC(=O)[C@H](CCc1ccc(CCCCNC(=N)NC(=O)c2nc(Cl)c(N)nc2N)cc1)N(C)C [Compound I, 3,5-diamino-6-chloro-N-(N-(4-(4-((S)-3-(dimethylamino)-4-((S)-1-(dimethylamino)-6-guanidino-1-oxohexan-2-ylamino)-4-oxobutyl)phenyl)butyl)carbamimidoyl)pyrazine-2-carboxamide]",Rat Hepatocyte Metabolism,Rat Hepatocyte,No evidence of significant metabolism
same,Potency compared to amiloride,"ENaC; Ussing chamber, primary cultures of canine bronchial epithelial cells",> 100 fold
same,IC50,"ENaC; canine bronchial epithelial cells, n=5, read-out: Potency (IC50) on Canine Bronchial Epithelial Cells",5.3 nM
same,Emax,"ENaC; with 3 washes, n=3, read-out: Reversal of Maximal Effect on Canine Bronchial Epithelial Cells (effect lost)",6.8 ± 5.1%
